The values below come from patent US20130281465A1, “PYRAZOLE DERIVATIVE” (TAISHO PHARMACEUTICAL CO., LTD., priority 2010, published 2013).

Test [1] deals with T1, human orexin type 1 receptor (hOX1R) (Homo sapiens, UniProt O43613).
T1 construct: expressed in transfected cells; host or cells: Chinese hamster ovary (CHO) cells
T1 sequence (O43613 1-425): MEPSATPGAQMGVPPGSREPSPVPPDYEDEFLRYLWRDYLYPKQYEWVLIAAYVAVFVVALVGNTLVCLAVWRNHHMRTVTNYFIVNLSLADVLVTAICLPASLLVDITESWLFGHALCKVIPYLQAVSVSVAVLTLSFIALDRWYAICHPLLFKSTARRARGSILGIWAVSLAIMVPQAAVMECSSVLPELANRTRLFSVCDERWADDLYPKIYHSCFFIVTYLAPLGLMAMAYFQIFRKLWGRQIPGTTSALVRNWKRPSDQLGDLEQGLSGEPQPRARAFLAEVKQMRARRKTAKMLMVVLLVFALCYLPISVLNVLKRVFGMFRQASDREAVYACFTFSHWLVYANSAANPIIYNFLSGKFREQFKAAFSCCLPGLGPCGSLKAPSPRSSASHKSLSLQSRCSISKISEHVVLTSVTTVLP
The experiment in a line: Orexin receptor antagonistic activity, intracellular Ca2+ fluorescence (FDSS) in CHO cells expressing hOX1R. It counts as cell-based. The settings on record: CHO cells forced to express hOX1R; orexin-A analogue peptide ligand 300 pM; Fluo-4 maximum fluorescence; read-out: IC50 value OX1R. Here is the method:
(§1) The antagonistic activity of each test compound against human orexin type 1 receptor (hOX1R) and orexin type 2 receptor (hOX2R) was performed as described in the literature with a modification (Toshikatsu Okumura et al., Biochemical and Biophysical Research Communications 280, 976-981, 2001). Chinese hamster ovary (CHO) cells forced to express hOX1R or hOX2R were seeded at 20,000 cells/well on a 96 well Black clear bottom plates (Nunc) and cultured for 16 hours under conditions of 37° C. and 5% CO2 using a Ham's F-12 medium containing 0.1 mM MEM non-essential amino acids, 0.5 mg/ml G418, and 10% fetal bovine serum (all from Invitrogen Corp.). After removal of the medium, 100 μL of the assay buffer (25 mM HEPES (Dojindo Laboratories), Hanks' balanced salt solution (Invitrogen Corp.), 0.1% bovine serum albumin, 2.5 mM probenecid, 200 μg/ml Amaranth (all from Sigma-Aldrich Corp.), pH 7.4) containing 0.5 μM Fluo-4AM ester (Dojindo Laboratories) was added thereto, and the cells were incubated for 60 minutes under conditions of 37° C. and 5% CO2. After removal of the buffer solution for assay containing Fluo-4AM ester, the test compound was dissolved at a concentration of 10 mM in dimethyl sulfoxide and diluted with the assay buffer, and 150 μL of the diluted solution was then added to each wells, which were then incubated for 30 minutes.
(§2) A peptide (Pyr-[…]11e-Leu-Thr-Leu-NH2; Peptide Institute, Inc.) substituted 2 amino acids of human orexin-A was diluted with the assay buffer to 300 pM (final concentration for hOX1R) or 3 nM (final concentration for hOX2R). 50 μL of this ligand solution was added thereto to start reaction. During the reaction, the fluorescence value of each well was measured every one second for 3 minutes using Functional Drug Screening System (FDSS; manufactured by Hamamatsu Photonics K.K.), and antagonistic activity was determined with the maximum fluorescence value as an index for intracellular Ca^2+ concentration. The antagonistic activity of the test compound was calculated with the fluorescence value of a well supplemented with only a dilution buffer solution as 100% and the fluorescence value of a well supplemented with a buffer solution containing neither the ligand nor the compound as 0%, and determined in terms of 50% inhibitory concentration (IC50 value) from fluorescence values derived from the test compound added at varying concentrations.

Test [2] concerns the target T2, orexin type 2 receptor (hOX2R) (Homo sapiens, UniProt O43614).
T2 construct: expressed in transfected cells; host or cells: Chinese hamster ovary (CHO) cells
T2 sequence (O43614 1-444): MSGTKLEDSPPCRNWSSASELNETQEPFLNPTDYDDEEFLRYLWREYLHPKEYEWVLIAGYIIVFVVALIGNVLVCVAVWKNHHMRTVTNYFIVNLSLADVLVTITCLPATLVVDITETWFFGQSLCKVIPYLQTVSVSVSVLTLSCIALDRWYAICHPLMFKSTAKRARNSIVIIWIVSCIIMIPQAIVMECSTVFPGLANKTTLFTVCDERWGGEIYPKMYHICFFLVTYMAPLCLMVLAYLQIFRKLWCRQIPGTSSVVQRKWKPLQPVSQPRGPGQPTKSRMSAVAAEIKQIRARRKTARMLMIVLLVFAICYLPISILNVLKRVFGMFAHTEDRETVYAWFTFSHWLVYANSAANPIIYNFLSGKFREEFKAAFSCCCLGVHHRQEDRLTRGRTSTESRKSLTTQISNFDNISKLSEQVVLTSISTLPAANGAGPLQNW
The experiment in a line: Orexin receptor antagonistic activity, intracellular Ca2+ fluorescence (FDSS) in CHO cells expressing hOX2R. The format is cell-based. The settings on record: CHO cells forced to express hOX2R; orexin-A analogue peptide ligand 3 nM; Fluo-4 maximum fluorescence; read-out: IC50 value OX2R. How it is done:
as §1, §2

Structures are written as SMILES.

As for `Cc1ccc(-n2nccn2)c(C(=O)N(CCn2ccc(-c3ccc(F)cn3)n2)CC(F)F)c1` [Example 22, N-(2,2-difluoroethyl)-N-{2-[3-(5-fluoropyridin-2-yl)-1H-pyrazol-1-yl]ethyl}-5-methyl-2-(2H-1,2,3-triazol-2-yl)benzamide], the IC50 (usually the point on the concentration scale where inhibition reaches its midpoint) in test [1] was determined as 10.5 nM; in test [2], 32.5 nM.
Turning to `CN(CCn1ccc(-c2ccc(F)cn2)n1)C(=O)c1cc(F)ccc1-n1nccn1` [Example 23-2, N-methyl-N-{2-[3-(5-fluoropyridin-2-yl)-1H-pyrazol-1-yl]ethyl}-5-fluoro-2-(2H-1,2,3-triazol-2-yl)benzamide], the half-inhibitory concentration (IC50) in test [1] was 76 nM; in test [2] it was 132 nM.
Take `CCN(CCn1ccc(-c2ccc(F)cn2)n1)C(=O)c1cc(F)ccc1-n1nccn1` [Example 24, N-ethyl-N-{2-[3-(5-fluoropyridin-2-yl)-1H-pyrazol-1-yl]ethyl}-5-fluoro-2-(2H-1,2,3-triazol-2-yl)benzamide]: the results for the half-maximal inhibitory concentration (IC50) in test [1] and in test [2] were 7.2 nM and 12.2 nM, respectively.
As for `CCN(CCn1ccc(-c2ccc(F)cn2)n1)C(=O)c1cc(C)ccc1-c1ncccn1` [Example 26, N-ethyl-N-{2-[3-(5-fluoropyridin-2-yl)-1H-pyrazol-1-yl]ethyl}-5-methyl-2-(pyrimidin-2-yl)benzamide], the IC50 in test [1] came out at 1.4 nM; in test [2] it was 3.7 nM.
On the same counts, the results for `Cc1ccc(-n2nccn2)c(C(=O)N(CCn2ccc(-c3ccc(F)cn3)n2)C(C)C)c1` [Example 27, N-{2-[3-(5-fluoropyridin-2-yl)-1H-pyrazol-1-yl]ethyl}-5-methyl-N-(propan-2-yl)-2-(2H-1,2,3-triazol-2-yl)benzamide] are 20.9 nM and 43.6 nM.
On to `Cc1ccc(-n2nccn2)c(C(=O)N(CCn2ccc(-c3ccc(F)cc3)n2)CC2CC2)c1` [Example 28, N-(cyclopropylmethyl)-N-{2-[3-(4-fluorophenyl)-1H-pyrazol-1-yl]ethyl}-5-methyl-2-(2H-1,2,3-triazol-2-yl)benzamide], for which the IC50 worked out at 1.2 nM in test [1] and 4 nM in test [2].
Turning to `Cc1ccc(-n2nccn2)c(C(=O)N(CCn2ccc(-c3ccccc3)n2)CC2CC2)c1` [Example 29, N-(cyclopropylmethyl)-5-methyl-N-[2-(3-phenyl-1H-pyrazol-1-yl)ethyl]-2-(2H-1,2,3-triazol-2-yl)benzamide], the half-maximal inhibitory concentration (IC50) in test [1] turned out to be 1.5 nM; in test [2] it was 6.1 nM.
Regarding `Cc1ccc(-n2nccn2)c(C(=O)N(CCn2ccc(-c3ccc(F)cn3)n2)C2CC2)c1` [Example 30, N-cyclopropyl-N-{2-[3-(5-fluoropyridin-2-yl)-1H-pyrazol-1-yl]ethyl}-5-methyl-2-(2H-1,2,3-triazol-2-yl)benzamide], the half-maximal inhibitory concentration (IC50) stood at 1.3 nM in test [1] and 1.8 nM in test [2].
On to `Cc1ccc(-n2nccn2)c(C(=O)N(CCn2ccc(-c3ccc(F)cn3)n2)C2COC2)c1` [Example 31, N-{2-[3-(5-fluoropyridin-2-yl)-1H-pyrazol-1-yl]ethyl}-5-methyl-N-(oxetan-3-yl)-2-(2H-1,2,3-triazol-2-yl)benzamide], for which the half-maximal inhibitory concentration (IC50) in test [1] is 24.9 nM; in test [2], 26.9 nM.
Take `CCN(CCn1ccc(-c2ccc(F)cn2)n1)C(=O)c1ccccc1-n1nccn1` [Example 32, N-ethyl-N-{2-[3-(5-fluoropyridin-2-yl)-1H-pyrazol-1-yl]ethyl}-2-(2H-1,2,3-triazol-2-yl)benzamide]: the half-maximal inhibitory concentration (IC50) in test [1] amounted to 9 nM; in test [2], 6.6 nM.
Consider `CCN(CCn1ccc(-c2ccc(F)cn2)n1)C(=O)c1cc(Cl)ccc1-n1nccn1` [Example 33, 5-Chloro-N-ethyl-N-{2-[3-(5-fluoropyridin-2-yl)-1H-pyrazol-1-yl]ethyl}-2-(2H-1,2,3-triazol-2-yl)benzamide], for which the values for the half-inhibitory concentration (IC50) in test [1] and in test [2] were 6.5 nM and 2.2 nM, respectively.
For `CCN(CCn1ccc(-c2ccc(F)cn2)n1)C(=O)c1ccccc1-c1ncccn1` [Example 34, N-ethyl-N-{2-[3-(5-fluoropyridin-2-yl)-1H-pyrazol-1-yl]ethyl}-2-(pyrimidin-2-yl)benzamide], the IC50 in test [1] stood at 8.4 nM; in test [2], 8.9 nM.
On the same counts, the results for `CCN(CCn1ccc(-c2ccc(F)cn2)n1)C(=O)c1cc(C)ccc1-c1ccccn1` [Example 35, N-ethyl-N-{2-[3-(5-fluoropyridin-2-yl)-1H-pyrazol-1-yl]ethyl}-5-methyl-2-(pyridin-2-yl)benzamide] are 1.8 nM and 11.7 nM.
As for `CCN(CCn1ccc(-c2ccc(F)cn2)n1)C(=O)c1cc(C)ccc1-c1cccnc1` [Example 36, N-ethyl-N-{2-[3-(5-fluoropyridin-2-yl)-1H-pyrazol-1-yl]ethyl}-5-methyl-2-(pyridin-3-yl)benzamide], the concentration for half-maximal inhibition (IC50) in test [1] was found to be 30.6 nM; in test [2], 58.9 nM.
With `CCN(CCn1cc(-c2ccc(F)cn2)cn1)C(=O)c1ccccc1-c1ncccn1` [Example 37, N-ethyl-N-{2-[4-(5-fluoropyridin-2-yl)-1H-pyrazol-1-yl]ethyl}-2-(pyrimidin-2-yl)benzamide], the IC50 in test [1] turned out to be 110 nM; in test [2], 301 nM.
Take `CCN(CCn1ccc(-c2cccc(C)n2)n1)C(=O)c1cc(C)ccc1-n1nccn1` [Example 39, N-ethyl-5-methyl-N-{2-[3-(6-methylpyridin-2-yl)-1H-pyrazol-1-yl]ethyl}-2-(2H-1,2,3-triazol-2-yl)benzamide]: the IC50 in test [1] was found to be 1.5 nM; in test [2], 2.2 nM.
As for `CCN(CCn1ccc(-c2ccc(F)cn2)n1)C(=O)c1cc(F)ccc1-c1ncccn1` [Example 41, N-ethyl-5-fluoro-N-{2-[3-(5-fluoropyridin-2-yl)-1H-pyrazol-1-yl]ethyl}-2-(pyrimidin-2-yl)benzamide], the values for the IC50 in test [1] and in test [2] were 0.5 nM and 7.6 nM, respectively.
As to `CCN(CCn1ccc(-c2ccc(F)cn2)n1)C(=O)c1cc(Cl)ccc1-c1ncccn1` [Example 43, N-ethyl-5-chloro-N-{2-[3-(5-fluoropyridin-2-yl)-1H-pyrazol-1-yl]ethyl}-2-(pyrimidin-2-yl)benzamide], the results for the IC50 in test [1] and in test [2] were 1.8 nM and 3.5 nM, respectively.
In the case of `CCN(CCn1ccc(-c2ccc(F)cn2)n1)C(=O)c1ccc(F)cc1-n1nccn1` [Example 44, N-ethyl-4-fluoro-N-{2-[3-(5-fluoropyridin-2-yl)-1H-pyrazol-1-yl]ethyl}-2-(2H-1,2,3-triazol-2-yl)benzamide], the IC50 in test [1] is 17.3 nM; in test [2], 29.8 nM.
Turning to `CCN(CCn1ccc(-c2ccc(F)cn2)n1)C(=O)c1c(F)cccc1-n1nccn1` [Example 45, N-ethyl-2-fluoro-N-{2-[3-(5-fluoropyridin-2-yl)-1H-pyrazol-1-yl]ethyl}-6-(2H-1,2,3-triazol-2-yl)benzamide], the figures for the half-inhibitory concentration (IC50) in test [1] and in test [2] were 38.7 nM and 46.9 nM, respectively.
As for `CCN(CCn1ccc(-c2ccc(F)cn2)n1)C(=O)c1c(F)cccc1-c1ncccn1` [Example 46, N-ethyl-2-fluoro-N-{2-[3-(5-fluoropyridin-2-yl)-1H-pyrazol-1-yl]ethyl}-6-(pyrimidin-2-yl)benzamide], the values for the 50% inhibitory concentration (IC50) in test [1] and in test [2] were 92.5 nM and 149 nM, respectively.
